This passage reports mortality results from patent US20260206751A1, “NOVEL BICYCLIC-CARBOXAMIDE COMPOUNDS USEFUL AS PESTICIDES” (SYNGENTA CROP PROTECTION AG, priority 2022, published 2026).

The subject of the assay is Tetranychus urticae (Two-Spotted Spider Mite). Kind of assay: Tetranychus urticae (two-spotted spider mite) feeding/contact activity. It is filed as in vivo. The settings on record: foliar, 192 h, application rate 200 ppm, sprayed bean leaf discs, mite population of mixed ages (mobile stages), 8 days after infestation. As to the method: Example B9: Tetranychus urticae (Two-Spotted Spider Mite): Feeding/Contact Activity
Bean leaf discs on agar in 24-well microtiter plates were sprayed with aqueous test solutions prepared from 10,000 ppm DMSO stock solutions. After drying the leaf discs were infested with a mite population of mixed ages. The samples were assessed for mortality on mixed population (mobile stages) 8 days after infestation.

Some results are limits rather than exact numbers.

A word on the mortality: it is the share of the test organisms that died. The low end stands for a weak lethal effect, the high end for a strong lethal effect. Consider `Cc1c(OC[C@H](C)NS(=O)(=O)C(Cl)Cl)cc(C(=O)NC2CC2)c2c1CCC2` [P-34, N-cyclopropyl-6-[(2S)-2-(dichloromethylsulfonylamino)propoxy]-7-methyl-indane-4-carboxamide], for which the mortality at 200 ppm was at least 80%.
